Literature values, collected in patent publication US20260102351A1, “LYOPHILIZED FORMULATION OF CROFELEMER AND METHODS OF TREATMENT USING THE SAME” (priority 2022, published 2026).

Conditions: human, in vivo

Substance: Crofelemer
- absorption from the GI tract: little or no absorption
- systemic bioavailability in humans: virtually no systemic bioavailability
- tolerability: well tolerated
